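Protocol summary: plate cells (96-well), add compound at 5 concentrations, incubate 48 h, interpolate endpoints linearly. The concentration for 50% growth inhibition is given as GI50.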 Calls of active or inactive are those of the source. Cut-off read from the data, not from the text of the source: active = GI50 up to about 1.1 µM and inactive = higher.
Legend:
Assay in all cases: inhibition of tumour cell growth, NCI panel, 48 h
DMS-273 = system: DMS-273
DLD-1 = system: DLD-1
HOP-18 = system: HOP-18
LXFL 529 = system: LXFL 529
RXF 631 = system: RXF 631
SNB-78 = system: SNB-78
XF498 = system: XF498
KM-20L2 = system: KM-20L2
M19-MEL = system: M19-MEL

Measured: GI50

O=C(NCCCCCCNC(=O)c1cccc2ccccc12)c1cccc2ccccc12
inactive: DMS-273 2.02 µM | DLD-1 59.7 µM | HOP-18 24.6 µM | LXFL 529 57.1 µM | RXF 631 47.2 µM | SNB-78 5.42 µM | XF498 3.2 µM | KM-20L2 > 100 µM

Clc1ccccc1C1=NN(c2ccccc2)C2c3ccccc3OCC12 (centres undefined)
inactive: DMS-273 83.8 µM | DLD-1 > 100 µM | HOP-18 27.8 µM | M19-MEL > 100 µM | LXFL 529 66.7 µM | RXF 631 > 100 µM | SNB-78 > 100 µM | XF498 > 100 µM | KM-20L2 73.3 µM

CCc1ccccc1NC(=O)C(=O)CC(=O)c1sc(Nc2ccccc2)nc1C
inactive: DMS-273 > 100 µM | DLD-1 > 100 µM | HOP-18 > 100 µM | M19-MEL > 100 µM | LXFL 529 > 100 µM | RXF 631 > 100 µM | SNB-78 > 100 µM | XF498 > 100 µM | KM-20L2 > 100 µM

O=c1[nH]nc2ccccc2c1Cl
inactive: DMS-273 16.3 µM | DLD-1 10.4 µM | HOP-18 15.7 µM | M19-MEL 6.92 µM | RXF 631 12.9 µM | SNB-78 13.3 µM | XF498 14.5 µM | KM-20L2 14.6 µM

Source: ChEMBL document CHEMBL1201862, “PubChem BioAssay data set” (2004)
